Measurements taken from ChEMBL document CHEMBL1641516, “Preparation and evaluation of trisubstituted pyrimidines as phosphatidylinositol 3-kinase inhibitors. 3-Hydroxyphenol analogues and bioisosteric replacements” (Bioorg Med Chem, 2011).

What was measured:
[1] = biological target: Phosphatidylinositol 4,5-bisphosphate 3-kinase catalytic subunit alpha isoform (Homo sapiens, UniProt P42336)
Description: Inhibition of human recombinant PI3K p110alpha after 1 hr by radiometric scintillation proximity assay

IGROV-1 [2] = assay: cells; conditions: Homo sapiens, IGROV-1, 96 h
Description: Cytotoxicity against human IGROV1 cells after 96 hrs by SRB assay

[3] = Metabolic stability in mouse liver microsomes assessed as compound metabolized at […] after 15 mins by MS analysis; format: ADME, Microsome; conditions: read-out: Activity
[4] = Metabolic stability in mouse liver microsomes assessed as compound metabolized at […] after 30 mins by MS analysis; format: ADME, Microsome; conditions: read-out: Activity
[5] = biological target: Phosphatidylinositol 4,5-bisphosphate 3-kinase catalytic subunit beta isoform (Homo sapiens, UniProt P42338); assay: Inhibition of human recombinant PI3K p110beta after 1 hr by radiometric scintillation proximity assay
Phosphatidylinositol 4,5-bisphosphate 3-kinase catalytic subunit beta isoform, sequence (P42338 whole entry, canonical isoform): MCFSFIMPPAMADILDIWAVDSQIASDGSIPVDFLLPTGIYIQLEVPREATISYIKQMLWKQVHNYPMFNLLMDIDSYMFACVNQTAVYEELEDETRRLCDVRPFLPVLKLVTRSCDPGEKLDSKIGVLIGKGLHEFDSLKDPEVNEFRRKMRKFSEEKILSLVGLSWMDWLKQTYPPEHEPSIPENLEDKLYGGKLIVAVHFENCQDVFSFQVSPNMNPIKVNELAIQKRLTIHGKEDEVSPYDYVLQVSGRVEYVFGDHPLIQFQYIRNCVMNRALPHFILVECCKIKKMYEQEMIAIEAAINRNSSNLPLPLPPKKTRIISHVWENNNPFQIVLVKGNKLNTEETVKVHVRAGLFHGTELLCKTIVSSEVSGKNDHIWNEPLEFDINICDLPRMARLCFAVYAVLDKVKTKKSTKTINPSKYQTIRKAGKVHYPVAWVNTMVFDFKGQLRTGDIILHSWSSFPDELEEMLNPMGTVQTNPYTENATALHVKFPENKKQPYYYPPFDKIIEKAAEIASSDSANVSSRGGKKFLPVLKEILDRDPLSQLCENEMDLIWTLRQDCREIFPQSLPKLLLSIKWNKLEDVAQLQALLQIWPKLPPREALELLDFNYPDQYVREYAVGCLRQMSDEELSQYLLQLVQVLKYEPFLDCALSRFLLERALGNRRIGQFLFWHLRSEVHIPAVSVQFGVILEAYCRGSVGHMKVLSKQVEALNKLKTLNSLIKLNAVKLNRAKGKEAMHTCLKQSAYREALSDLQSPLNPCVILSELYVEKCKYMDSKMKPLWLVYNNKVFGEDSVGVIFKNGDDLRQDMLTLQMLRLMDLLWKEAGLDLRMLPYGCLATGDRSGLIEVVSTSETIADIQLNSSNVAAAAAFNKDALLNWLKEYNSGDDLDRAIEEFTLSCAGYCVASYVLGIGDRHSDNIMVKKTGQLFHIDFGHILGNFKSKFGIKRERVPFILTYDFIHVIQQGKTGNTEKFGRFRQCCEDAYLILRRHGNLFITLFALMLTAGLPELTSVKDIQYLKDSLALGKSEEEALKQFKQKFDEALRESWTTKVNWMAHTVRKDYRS

[6] = biological target: Phosphatidylinositol 4,5-bisphosphate 3-kinase catalytic subunit gamma isoform (Homo sapiens, UniProt P48736)
Phosphatidylinositol 4,5-bisphosphate 3-kinase catalytic subunit gamma isoform, sequence (P48736 whole entry, canonical isoform): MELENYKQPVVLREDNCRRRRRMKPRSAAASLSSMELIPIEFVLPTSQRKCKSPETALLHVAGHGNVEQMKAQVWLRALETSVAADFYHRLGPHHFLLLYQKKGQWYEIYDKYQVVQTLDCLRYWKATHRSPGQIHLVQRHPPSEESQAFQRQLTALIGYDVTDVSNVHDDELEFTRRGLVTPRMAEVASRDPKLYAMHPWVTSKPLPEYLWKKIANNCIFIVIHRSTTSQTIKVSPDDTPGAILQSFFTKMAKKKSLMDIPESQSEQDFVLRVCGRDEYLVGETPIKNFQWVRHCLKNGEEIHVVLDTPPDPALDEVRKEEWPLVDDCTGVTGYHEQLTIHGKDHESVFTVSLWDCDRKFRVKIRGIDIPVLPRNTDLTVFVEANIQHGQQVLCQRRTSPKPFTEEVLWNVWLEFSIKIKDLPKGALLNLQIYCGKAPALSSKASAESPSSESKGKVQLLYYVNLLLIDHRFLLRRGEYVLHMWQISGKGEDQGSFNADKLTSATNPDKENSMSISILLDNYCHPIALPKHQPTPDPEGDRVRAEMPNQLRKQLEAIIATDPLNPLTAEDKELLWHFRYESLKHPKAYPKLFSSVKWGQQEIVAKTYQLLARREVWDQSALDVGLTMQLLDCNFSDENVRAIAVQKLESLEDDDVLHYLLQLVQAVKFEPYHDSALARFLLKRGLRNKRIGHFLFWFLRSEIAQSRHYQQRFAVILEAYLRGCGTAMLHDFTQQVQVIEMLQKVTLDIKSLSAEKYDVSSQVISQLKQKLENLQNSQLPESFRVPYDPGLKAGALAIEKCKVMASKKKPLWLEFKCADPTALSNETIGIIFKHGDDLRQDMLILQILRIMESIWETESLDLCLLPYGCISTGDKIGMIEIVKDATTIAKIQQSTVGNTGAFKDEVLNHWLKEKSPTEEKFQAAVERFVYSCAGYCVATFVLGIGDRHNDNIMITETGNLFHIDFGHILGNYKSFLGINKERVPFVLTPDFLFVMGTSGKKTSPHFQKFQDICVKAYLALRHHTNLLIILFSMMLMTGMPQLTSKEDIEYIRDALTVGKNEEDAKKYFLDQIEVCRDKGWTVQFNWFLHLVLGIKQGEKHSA
Description: Inhibition of human recombinant PI3K p110gamma after 1 hr by radiometric scintillation proximity assay

IGROV-1 [7] = assay: Cell cycle arrest in human IGROV1 cells assessed as accumulation at S phase at 1 fold IC50 after 24 hrs by flow cytometry; format: functional
IGROV-1 [8] = assay: Cell cycle arrest in human IGROV1 cells assessed as accumulation at S phase at 5 fold IC50 after 24 hrs by flow cytometry; format: functional
IGROV-1 [9] = assay: Cell cycle arrest in human IGROV1 cells assessed as accumulation at G1 phase at 5 fold IC50 after 24 hrs by flow cytometry; format: functional
IGROV-1 [10] = assay: Cell cycle arrest in human IGROV1 cells assessed as accumulation at G1 phase at 1 fold IC50 after 24 hrs by flow cytometry; format: functional
IGROV-1 [11] = assay: Cell cycle arrest in human IGROV1 cells assessed as accumulation at G2/M phase at 5 fold IC50 after 24 hrs by flow cytometry; format: functional
IGROV-1 [12] = assay: Cell cycle arrest in human IGROV1 cells assessed as accumulation at G2/M phase at 1 fold IC50 after 24 hrs by flow cytometry; format: functional

Phosphatidylinositol 4,5-bisphosphate 3-kinase catalytic subunit alpha isoform, sequence (P42336 whole entry, canonical isoform): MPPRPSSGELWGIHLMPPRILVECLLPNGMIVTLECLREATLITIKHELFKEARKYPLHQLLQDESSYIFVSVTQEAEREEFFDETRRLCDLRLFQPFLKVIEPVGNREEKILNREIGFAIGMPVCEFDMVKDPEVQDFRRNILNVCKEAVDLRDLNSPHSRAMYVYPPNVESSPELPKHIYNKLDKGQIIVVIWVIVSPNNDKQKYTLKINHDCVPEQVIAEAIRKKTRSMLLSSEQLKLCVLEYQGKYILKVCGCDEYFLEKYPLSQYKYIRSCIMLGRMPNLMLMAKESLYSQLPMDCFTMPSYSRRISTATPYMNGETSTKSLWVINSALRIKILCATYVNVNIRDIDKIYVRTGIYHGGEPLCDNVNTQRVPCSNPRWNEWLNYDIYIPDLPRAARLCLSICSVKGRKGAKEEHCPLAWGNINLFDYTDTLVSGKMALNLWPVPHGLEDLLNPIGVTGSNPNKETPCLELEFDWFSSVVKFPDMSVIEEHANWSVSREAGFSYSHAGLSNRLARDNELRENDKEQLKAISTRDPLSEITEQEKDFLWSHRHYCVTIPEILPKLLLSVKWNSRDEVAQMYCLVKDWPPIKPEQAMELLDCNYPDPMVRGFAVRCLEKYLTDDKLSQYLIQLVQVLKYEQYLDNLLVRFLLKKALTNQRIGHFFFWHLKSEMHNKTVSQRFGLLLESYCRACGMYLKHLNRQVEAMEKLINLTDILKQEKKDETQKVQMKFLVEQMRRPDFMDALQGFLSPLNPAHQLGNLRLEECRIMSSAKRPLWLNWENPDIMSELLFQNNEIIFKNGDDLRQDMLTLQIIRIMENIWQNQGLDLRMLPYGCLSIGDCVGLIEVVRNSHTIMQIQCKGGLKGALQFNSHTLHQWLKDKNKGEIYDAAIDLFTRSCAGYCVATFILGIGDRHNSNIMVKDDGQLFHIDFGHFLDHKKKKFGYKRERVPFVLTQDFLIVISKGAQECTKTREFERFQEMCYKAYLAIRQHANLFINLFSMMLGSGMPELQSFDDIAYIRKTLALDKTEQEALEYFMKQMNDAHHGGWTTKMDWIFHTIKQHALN

With `Clc1ccc(-c2cc(N3CCOCC3)nc(-c3cccc(OCc4ccccc4)c3)n2)cc1` the IC50 [1] was over 10000 nM.
`Oc1cccc(-c2cc(N3CCOCC3)nc(NCc3cccnc3)n2)c1` gave an IC50 [1] of 880 nM.
`CS(=O)(=O)Nc1cccc(-c2cc(NCCc3ccccn3)nc(N3CCOCC3)n2)c1` showed a GI50 (IGROV-1 [2]) of 15000 nM and an IC50 [1] of over 10000 nM.
`c1ccc(COc2cccc(-c3nc(-c4cccnc4)cc(N4CCOCC4)n3)c2)cc1` showed an IC50 [1] of over 10000 nM.
Compound `Oc1cccc(-c2nc(-c3ccc(Cl)c(Cl)c3)cc(N3CCOCC3)n2)c1` has an IC50 [1] of 200 nM.
Work on `c1ccc(CCNc2nc(-c3cccc4[nH]ncc34)cc(N3CCOCC3)n2)nc1` yielded a GI50 (IGROV-1 [2]) of 2700 nM and an IC50 [1] of 1100 nM.
`c1cc(-c2cc(NCCc3ccncc3)nc(N3CCOCC3)n2)c2cn[nH]c2c1` showed a metabolised at 0.25 h [3] of 37%, a GI50 (IGROV-1 [2]) of 2700 nM and an IC50 [1] of 770 nM. For the same compound, the metabolised at 0.5 h [4] was 68%.
In the case of `c1cc(-c2cc(N3CCOCC3)nc(NCCc3ccncc3)n2)c2cn[nH]c2c1`, the metabolised at 0.25 h [3] is reported as 49%, the GI50 (IGROV-1 [2]) is reported as 1500 nM and the IC50 [1] is reported as 440 nM. It also gave a metabolised at 0.5 h [4] of 74%.
`Oc1cccc(-c2cc(N3CCOCC3)nc(NCCc3cccnc3)n2)c1` gave a GI50 (IGROV-1 [2]) of 750 nM and an IC50 [1] of 250 nM.
For `c1ccc(COc2cccc(-c3nc(-c4ccccn4)cc(N4CCOCC4)n3)c2)cc1`, the IC50 [1] was over 10000 nM.
Work on `c1ccc(COc2nc(-c3ccc4cc[nH]c4c3)cc(N3CCOCC3)n2)nc1` yielded a GI50 (IGROV-1 [2]) of 9000 nM and an IC50 [1] of 5200 nM.
With `CS(=O)(=O)Nc1cccc(-c2cc(NCCc3cccnc3)nc(N3CCOCC3)n2)c1` the GI50 (IGROV-1 [2]) was 11600 nM and the IC50 [1] was over 10000 nM.
Work on `c1ccc(COc2nc(-c3cccc4[nH]ncc34)cc(N3CCOCC3)n2)nc1` yielded a GI50 (IGROV-1 [2]) of 2300 nM and an IC50 [1] of 1350 nM.
With `CS(=O)(=O)Nc1cccc(-c2cc(N3CCOCC3)nc(NCCc3ccncc3)n2)c1` the metabolised at 0.25 h [3] was 33%, the GI50 (IGROV-1 [2]) was 6200 nM and the IC50 [1] was 9100 nM. For the same compound, the metabolised at 0.5 h [4] was 53%.
Work on `Oc1cccc(-c2cc(NCCc3ccccn3)nc(N3CCOCC3)n2)c1` yielded a GI50 (IGROV-1 [2]) of 2200 nM, an IC50 [1] of 250 nM and an IC50 [5] of 2600 nM. For the same compound, the IC50 [6] was 830 nM.
Compound `O=c1cc(N2CCOCC2)oc2c(-c3ccccc3)cccc12` [LY-294002] has an Activity (IGROV-1 [7]) of 21%, an Activity (IGROV-1 [8]) of 3% and an Activity (IGROV-1 [9]) of 82%. It also gave an Activity (IGROV-1 [10]) of 72%, an Activity (IGROV-1 [11]) of 15% and an Activity (IGROV-1 [12]) of 7%.
With `Oc1cccc(-c2cc(NCCc3cccnc3)nc(N3CCOCC3)n2)c1` the GI50 (IGROV-1 [2]) was 1200 nM, the IC50 [1] was 260 nM and the IC50 [5] was 1900 nM. The IC50 [6] was 960 nM.
In the case of `CS(=O)(=O)Nc1cccc(-c2cc(N3CCOCC3)nc(NCCc3cccnc3)n2)c1`, the GI50 (IGROV-1 [2]) is reported as 16200 nM and the IC50 [1] is reported as over 10000 nM.
For `Oc1cccc(-c2cc(NCCc3ccncc3)nc(N3CCOCC3)n2)c1`, the Activity (IGROV-1 [7]) was 21%, the Activity (IGROV-1 [8]) was 2% and the metabolised at 0.25 h [3] was 54%. The GI50 (IGROV-1 [2]) was 700 nM, the IC50 [1] was 140 nM and the Activity (IGROV-1 [9]) was 87%. It also gave an Activity (IGROV-1 [10]) of 75%, an Activity (IGROV-1 [11]) of 10% and an IC50 [5] of 1600 nM. For the same compound, the Activity (IGROV-1 [12]) was 4%, the IC50 [6] was 740 nM and the metabolised at 0.5 h [4] was 71%.
`Clc1ccc(-c2cc(N3CCOCC3)nc(-c3cccc(OCc4ccccc4)c3)n2)cc1Cl` gave an IC50 [1] of over 10000 nM.
In the case of `Oc1cccc(-c2cc(N3CCOCC3)nc(NCc3ccccn3)n2)c1`, the IC50 [1] is reported as 1000 nM.
`c1cncc(CCNc2cc(-c3cccc4[nH]ncc34)nc(N3CCOCC3)n2)c1` showed a metabolised at 0.25 h [3] of 66%, a GI50 (IGROV-1 [2]) of 2900 nM and an IC50 [1] of 660 nM. For the same compound, the metabolised at 0.5 h [4] was 98%.
`c1cc(CCNc2nc(-c3ccc4cc[nH]c4c3)cc(N3CCOCC3)n2)ccn1` gave a metabolised at 0.25 h [3] of 38%, a GI50 (IGROV-1 [2]) of 3000 nM and an IC50 [1] of over 10000 nM. For the same compound, the metabolised at 0.5 h [4] was 60%.
Work on `Oc1cccc(-c2cc(N3CCOCC3)nc(NCc3ccncc3)n2)c1` yielded an IC50 [1] of 860 nM.
In the case of `Oc1cccc(-c2cc(N3CCOCC3)nc(NCCc3ccncc3)n2)c1`, the GI50 (IGROV-1 [2]) is reported as 950 nM and the IC50 [1] is reported as 230 nM.
For `Oc1cccc(-c2cc(NCc3ccncc3)nc(N3CCOCC3)n2)c1`, the IC50 [1] was 1000 nM.
`Oc1cccc(-c2cc(OCc3ccccn3)nc(N3CCOCC3)n2)c1` gave a GI50 (IGROV-1 [2]) of 1500 nM, an IC50 [1] of 110 nM and an IC50 [5] of 370 nM. For the same compound, the IC50 [6] was 730 nM.
`CS(=O)(=O)Nc1cccc(-c2cc(N3CCOCC3)nc(NCCc3ccccn3)n2)c1` gave a GI50 (IGROV-1 [2]) of 11500 nM and an IC50 [1] of over 10000 nM.
With `c1cncc(CCNc2nc(-c3ccc4cc[nH]c4c3)cc(N3CCOCC3)n2)c1` the GI50 (IGROV-1 [2]) was 4200 nM and the IC50 [1] was 7200 nM.
In the case of `c1ccc(COc2cccc(-c3nc(-c4ccncc4)cc(N4CCOCC4)n3)c2)cc1`, the IC50 [1] is reported as over 10000 nM.
For `c1cc(CCNc2cc(-c3ccc4cc[nH]c4c3)nc(N3CCOCC3)n2)ccn1`, the GI50 (IGROV-1 [2]) was 14500 nM and the IC50 [1] was over 10000 nM.
`c1ccc(CCNc2cc(-c3cccc4[nH]ncc34)nc(N3CCOCC3)n2)nc1` gave a metabolised at 0.25 h [3] of 58%, a GI50 (IGROV-1 [2]) of 7800 nM and an IC50 [1] of 1300 nM. The metabolised at 0.5 h [4] was 84%.
In the case of `Oc1cccc(-c2cc(N3CCOCC3)nc(NCCc3ccccn3)n2)c1`, the GI50 (IGROV-1 [2]) is reported as 1200 nM, the IC50 [1] is reported as 180 nM and the IC50 [5] is reported as 5200 nM. It also gave an IC50 [6] of 380 nM.
`c1ccc(CCNc2cc(-c3ccc4cc[nH]c4c3)nc(N3CCOCC3)n2)nc1` gave a GI50 (IGROV-1 [2]) of 12000 nM and an IC50 [1] of over 10000 nM.
`c1ccc(COc2cc(-c3cccc4[nH]ncc34)nc(N3CCOCC3)n2)nc1` showed a metabolised at 0.25 h [3] of 44%, a GI50 (IGROV-1 [2]) of 1900 nM and an IC50 [1] of 500 nM. It also gave a metabolised at 0.5 h [4] of 66%.
`Oc1cccc(-c2nc(-c3ccc(Cl)cc3)cc(N3CCOCC3)n2)c1` gave an IC50 [1] of 690 nM.
Work on `c1ccc(COc2cc(-c3ccc4cc[nH]c4c3)nc(N3CCOCC3)n2)nc1` yielded a GI50 (IGROV-1 [2]) of 6000 nM and an IC50 [1] of over 10000 nM.
`Oc1cccc(-c2cc(NCc3ccccn3)nc(N3CCOCC3)n2)c1` gave an IC50 [1] of 900 nM, an IC50 [5] of 2300 nM and an IC50 [6] of 7600 nM.
With `c1cncc(CCNc2cc(-c3ccc4cc[nH]c4c3)nc(N3CCOCC3)n2)c1` the GI50 (IGROV-1 [2]) was 6000 nM and the IC50 [1] was over 10000 nM.
Compound `CS(=O)(=O)Nc1ccc(-c2cc(OCc3ccccn3)nc(N3CCOCC3)n2)cc1` has a GI50 (IGROV-1 [2]) of 16000 nM and an IC50 [1] of over 10000 nM.
With `Oc1cccc(-c2cc(N3CCOCC3)nc(OCc3ccccn3)n2)c1` the GI50 (IGROV-1 [2]) was 2500 nM and the IC50 [1] was 860 nM.
Work on `c1cncc(CCNc2nc(-c3cccc4[nH]ncc34)cc(N3CCOCC3)n2)c1` yielded a GI50 (IGROV-1 [2]) of 2900 nM and an IC50 [1] of 820 nM.
With `CS(=O)(=O)Nc1cccc(-c2cc(NCCc3ccncc3)nc(N3CCOCC3)n2)c1` the GI50 (IGROV-1 [2]) was 15000 nM and the IC50 [1] was over 10000 nM.
`Oc1cccc(-c2nc(-c3cccnc3)cc(N3CCOCC3)n2)c1` gave a GI50 (IGROV-1 [2]) of 630 nM, an IC50 [1] of 260 nM and an IC50 [5] of 440 nM. It also gave an IC50 [6] of 340 nM.
For `Oc1cccc(-c2nc(-c3ccccn3)cc(N3CCOCC3)n2)c1`, the Activity (IGROV-1 [7]) was 20%, the Activity (IGROV-1 [8]) was 5% and the metabolised at 0.25 h [3] was 39%. It also gave a GI50 (IGROV-1 [2]) of 370 nM, an IC50 [1] of 62 nM and an Activity (IGROV-1 [9]) of 84%. The Activity (IGROV-1 [10]) was 76%, the Activity (IGROV-1 [11]) was 10% and the IC50 [5] was 100 nM. The Activity (IGROV-1 [12]) was 3%, the IC50 [6] was 44 nM and the metabolised at 0.5 h [4] was 57%.
Compound `Oc1cccc(-c2nc(-c3ccncc3)cc(N3CCOCC3)n2)c1` has a GI50 (IGROV-1 [2]) of 1200 nM, an IC50 [1] of 140 nM and an IC50 [5] of 200 nM. It also gave an IC50 [6] of 150 nM.
Work on `CS(=O)(=O)Nc1ccc(-c2cc(N3CCOCC3)nc(OCc3ccccn3)n2)cc1` yielded a GI50 (IGROV-1 [2]) of 13500 nM and an IC50 [1] of 6200 nM.
